Key:
Assay type in all cases: in vivo, Balb/c-nu mice
[1] = tested on: human gastric cancer cell line NCI-N87; test: Experimental example 1: NCI-N87 gastric cancer subcutaneous xenograft, tumor inhibition; settings: D21 after administration; IV, BIW×3W; BT001021 and Immu-132 3 mg/kg, toxins T-030 and SN-38 equimolar to ADC
Protocol: (§1) Tumor-bearing mice (6 mice/group) with tumor volume of 100-200 mm^3 were randomly grouped (the number of groups was determined according to sample number). The administration volume was 10 ml/kg, and the administration route was tail intravenous injection. The mice were administered twice a week, and tumor diameter was measured with a vernier caliper, and tumor volume was calculated based on the following calculation formula: V=0.5 a×b^2, wherein a and b stand for the long diameter and short diameter of a tumor respectively. Animal deaths were observed and recorded every day.
(§2) The tumor growth inhibition rate TGI (%) was calculated from the following formula to evaluate tumor inhibitory effect of antibody drug conjugates:
(§3) Specifically, in the experimental examples 1 and 2, tumor-bearing mice models were constructed by subcutaneous xenograft of a human gastric cancer cell line NCI-N87 or a human triple negative breast cancer cell line HCC1806. After the tumor volume was about 100 mm^3, the mice were randomly grouped, and intravenously administered with BT001021 twice a week for a total of 6 times. Changes in tumor volume and animal body weight were measured twice a week to evaluate the efficacy (tumor inhibitory effect) of the antibody drug conjugate on tumor-bearing mice.
NCI-N87 cells were cultured in a 1640 culture medium containing 10% fetal bovine serum at 37° C. and 5% CO2. NCI-N87 cells in the exponential growth stage were collected, resuspended in PBS to a suitable concentration, and inoculated subcutaneously into female Balb/c-nu mice to construct gastric cancer models. When the mean tumor volume was about 90 mm^3, the mice were randomly grouped into a physiological saline group, a BT001021 (3 mg/kg, IV, BIW×3W) group, a positive drug Immu-132 (3 mg/kg, IV, BIW×3W) group, a T030 group and a SN38 group according to the tumor size, followed by tail intravenous injection of corresponding drugs twice a week for a total of 6 times. After administration, the tumor volume and body weight of the mice were observed and measured regularly.

[2] = tested on: human breast cancer cell line HCC1806; test: Experimental example 2: HCC1806 breast cancer subcutaneous xenograft, tumor inhibition; settings: 10 mg/kg, IV, BIW×3W
Protocol: as §1, §2, §3
HCC1806 cells were cultured in a 1640 culture medium containing 10% fetal bovine serum at 37° C. and 5% CO2. HCC1806 cells in the exponential growth stage were collected, resuspended in PBS in a suitable concentration, and inoculated subcutaneously into female Balb/c-nu to construct breast cancer models. When the mean tumor volume was about 130 mm^3, the mice were randomly grouped into a physiological saline group, a BT001021 (10 mg/kg, IV, BIW×3W) group and a positive drug Immu-132 (10 mg/kg, IV, BIW×3W) group according to the tumor size, followed by tail intravenous injection of corresponding drugs twice a week for a total of […]. After administration, the tumor volume of the mice was observed and measured regularly.

[3] = tested on: human non-small cell lung cancer cell line HCC827; test: Experimental example 3: HCC827 non-small cell lung cancer subcutaneous xenograft, tumor inhibition; settings: D21 after administration; 10 mg/kg, IV, BIW×3W
Protocol: as §1, §2
The experimental example 3 was used to evaluate the inhibitory effect of BT001021 and BT001035 on proliferation of tumor-bearing mice models constructed by subcutaneous xenograft human tumor cells of HCC827 non-small cell lung cancer. […] Then changes in tumor volume and animal body weight were measured twice a week to calculate the efficacy (tumor inhibitory effect) of BT001021 and BT001035 on the tumor-bearing mice.
HCC827 cells were cultured in a 1640 culture medium containing 10% fetal bovine serum at 37° C. and 5% CO2. […] After administration, the tumor volume and body weight of the mice were observed and measured regularly. […]

What does the source list for “Immu-132: positive drug; ADC prepared according to example 2 of WO2015/012904A2, DAR=5.4”?
Tumor Volume (mm^3) (x ± S) [1]: 259.04 ± 42.41 mm^3; Tumor growth inhibition rate (%) [1]: 46.46%; tumor growth of xenograft model mice (result in words) [2]: did not show significant inhibitory activity; Tumor Volume (mm^3) (x ± S) ([2]; D17 after administration): 2347.05 ± 317.79 mm^3; Tumor growth inhibition rate (%) ([2]; D17 after administration): 11.62%; TGI (%) [3]: 85.19%; Tumor Volume (mm^3) (x ± S) [3]: 145.94 ± 19.72 mm^3

From patent publication US20240382612A1, “BIOACTIVE CONJUGATE, PREPARATION METHOD THEREFOR AND USE THEREOF” (priority 2017, published 2024)
